Measurements published in patent US11000033B2, “Ketone or oxime compound, and herbicide” (NISSAN CHEMICAL CORPORATION, priority 2014, dated 2021).

What was measured:
Format in all cases: in vivo
[1] = system: Echinochloa oryzacola Vasing.; assay: Test Example 1: herbicidal activity, application before weed generation in submerged conditions (symbol A); conditions: application herbicide amount 320 g/ha
Method in brief: (§1)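 0–5 visual score, 3 wk post-application. Submerged pots, alluvial soil, water 4 cm; seeds sown mixed, rice at 2.5 leaves transplanted. Emulsion diluted to predetermined dose, applied to water surface at sowing. 25–30 °C greenhouse.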

Monochoria vaginalis = assay: Test Example 1: herbicidal activity, application before weed generation in submerged conditions (symbol C); conditions: application herbicide amount 320 g/ha
Method in brief: as §1

transplanted rice plant = assay: Test Example 1: effect on crop, application before weed generation in submerged conditions (symbol a); conditions: application herbicide amount 320 g/ha
Method in brief: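 Alluvial soil pots flooded to 4 cm water, sown with Echinochloa oryzacola, Scirpus juncoides and Monochoria vaginalis, then transplanted with 2.5 leaf stage rice seedlings; pre-emergence application. Greenhouse 25° C. to 30° C.; scored 0–5 by herbicidal ratio 3 weeks after application.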

[2] = system: directly sowed rice plant; assay: Test Example 3: effect on crop by foliage application, Wagner pot (symbol b); conditions: application herbicide amount 320 g/ha
Method in brief: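 Greenhouse culture at 25–30 °C of seeded rice, Cyperus difformis, Leptochloa chinensis and Echinochloa crus-galli var. crus-galli, in alluvial soil held under 0.1–0.5 cm of water in a Wagner pot.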

Lolium multiflorum Lam. [3] = assay: Test Example 4: herbicidal effect by soil treatment (symbol K); conditions: application herbicide amount 320 g/ha
Method in brief: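 Seeds were sown in sterilized diluvial soil, covered with about 1.5 cm of soil, and the soil surface was sprayed with a water-diluted emulsion of the compound at a predetermined rate. Plants grew in a greenhouse at 25° C. to 30° C.; effects were scored visually 3 weeks after application.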

soybean = assay: Test Example 4: effect on crop by soil treatment (symbol d); conditions: application herbicide amount 320 g/ha
Method in brief: (§2)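 Steps: fill box with sterilized diluvial soil; sow seed spot-like; cover with ~1.5 cm soil; grow in greenhouse (25° C. to 30° C.).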

rice = assay: Test Example 4: effect on crop by soil treatment (symbol b); conditions: application herbicide amount 320 g/ha
Method in brief: as §2

Digitaria ciliaris = assay: Test Example 5: herbicidal effect by foliage application, plastic box (symbol F); conditions: 320 g/ha, 3 weeks after application
Method in brief: (§3)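 After sowing into sterilized diluvial soil and growing two weeks under glass at 25° C. to 30° C., seedlings receive a uniform foliar spray of diluted emulsion. Damage is judged visually three weeks on.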

[4] = system: Echinochloa crus-galli var. crus-galli; assay: Test Example 5: herbicidal effect by foliage application, plastic box (symbol H); conditions: 320 g/ha, 3 weeks after application
Method in brief: as §3

Alopecurus myosuroides = assay: Test Example 5: herbicidal effect by foliage application, plastic box (symbol J); conditions: 320 g/ha, 3 weeks after application
Method in brief: as §3

Lolium multiflorum Lam. [5] = assay: Test Example 5: herbicidal effect by foliage application, plastic box (symbol K); conditions: 320 g/ha, 3 weeks after application
Method in brief: as §3

Abutilon theophrasti = assay: Test Example 5: herbicidal effect by foliage application, plastic box (symbol M); conditions: 320 g/ha, 3 weeks after application
Method in brief: as §3

Amaranthus retroflexus = assay: Test Example 5: herbicidal effect by foliage application, plastic box (symbol N); conditions: 320 g/ha, 3 weeks after application
Method in brief: as §3

corn = assay: Test Example 5: effect on crop by foliage application, plastic box (symbol c); conditions: 320 g/ha, 3 weeks after application
Method in brief: (§4)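 Foliage-application test plants come from spot sowing in sterilized diluvial soil under a soil layer of about 1.5 cm, grown at 25° C. to 30° C. in a greenhouse.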

rice plant = assay: Test Example 5: effect on crop by foliage application, plastic box (symbol b); conditions: 320 g/ha, 3 weeks after application
Method in brief: as §4

| Compound | Herbicidal effect grade, A: Echinochloa oryzacola Vasing. [1] | Herbicidal effect grade, C: Monochoria vaginalis (Monochoria vaginalis) | Effect grade on crop, a: transplanted rice plant (transplanted rice plant) | effect on crop b (directly sowed rice plant), grade 0-5 [2] | K (Lolium multiflorum Lam.) herbicidal effect grade (Lolium multiflorum Lam. [3]) | d (soybean) effect on crop grade (soybean) | b (directly sowed rice plant) effect on crop grade (rice) | F: Digitaria ciliaris, herbicidal effect grade (Digitaria ciliaris) | H: Echinochloa crus-galli var. crus-galli, herbicidal effect grade [4] | J: Alopecurus myosuroides, herbicidal effect grade (Alopecurus myosuroides) | K: Lolium multiflorum Lam., herbicidal effect grade (Lolium multiflorum Lam. [5]) | M: Abutilon theophrasti, herbicidal effect grade (Abutilon theophrasti) | N: Amaranthus retroflexus, herbicidal effect grade (Amaranthus retroflexus) | c: corn, effect on crop grade (corn) | b: directly sowed rice plant, effect on crop grade (rice plant) |
| --- | --- | --- | --- | --- | --- | --- | --- | --- | --- | --- | --- | --- | --- | --- | --- |
| CON=C(C)CC1CC(OC(=O)C2CC2)=C(c2c(C)cc(C)cc2C)C1=O (stereo not drawn) [1-015] | 5 (Herbicidal ratio of 90% or more (almost completely withered)) | 2 (Herbicidal ratio of 20% or higher and lower than 40%) | 5 (Herbicidal ratio of 90% or more (almost completely withered)) | 5 (Herbicidal ratio of 90% or more (almost completely withered)) | 5 (Herbicidal ratio of 90% or more (almost completely withered)) | 3 (Herbicidal ratio of 40% or higher and lower than 70%) | 5 (Herbicidal ratio of 90% or more (almost completely withered)) | 5 (Herbicidal ratio of 90% or more (almost completely withered)) | 5 (Herbicidal ratio of 90% or more (almost completely withered)) | 5 (Herbicidal ratio of 90% or more (almost completely withered)) | 5 (Herbicidal ratio of 90% or more (almost completely withered)) | 4 (Herbicidal ratio of 70% or higher and lower than 90%) | 4 (Herbicidal ratio of 70% or higher and lower than 90%) | 5 (Herbicidal ratio of 90% or more (almost completely withered)) | 5 (Herbicidal ratio of 90% or more (almost completely withered)) |
| CON=C(C)CC1CC(OC(=O)C(C)(C)CCl)=C(c2c(C)cc(C)cc2C)C1=O (stereo not drawn) [1-016] | 5 (Herbicidal ratio of 90% or more (almost completely withered)) | 4 (Herbicidal ratio of 70% or higher and lower than 90%) | 5 (Herbicidal ratio of 90% or more (almost completely withered)) | 5 (Herbicidal ratio of 90% or more (almost completely withered)) | 5 (Herbicidal ratio of 90% or more (almost completely withered)) | 3 (Herbicidal ratio of 40% or higher and lower than 70%) | 5 (Herbicidal ratio of 90% or more (almost completely withered)) | 5 (Herbicidal ratio of 90% or more (almost completely withered)) | 5 (Herbicidal ratio of 90% or more (almost completely withered)) | 5 (Herbicidal ratio of 90% or more (almost completely withered)) | 5 (Herbicidal ratio of 90% or more (almost completely withered)) | 4 (Herbicidal ratio of 70% or higher and lower than 90%) | 4 (Herbicidal ratio of 70% or higher and lower than 90%) | 4 (Herbicidal ratio of 70% or higher and lower than 90%) | 5 (Herbicidal ratio of 90% or more (almost completely withered)) |
| CON=C(C)CC1CC(OC(=O)C(C)(C)Oc2ccccc2)=C(c2c(C)cc(C)cc2C)C1=O (stereo not drawn) [1-017] | 5 (Herbicidal ratio of 90% or more (almost completely withered)) | 2 (Herbicidal ratio of 20% or higher and lower than 40%) | 5 (Herbicidal ratio of 90% or more (almost completely withered)) | 5 (Herbicidal ratio of 90% or more (almost completely withered)) | 5 (Herbicidal ratio of 90% or more (almost completely withered)) | 2 (Herbicidal ratio of 20% or higher and lower than 40%) | 5 (Herbicidal ratio of 90% or more (almost completely withered)) | 5 (Herbicidal ratio of 90% or more (almost completely withered)) | 5 (Herbicidal ratio of 90% or more (almost completely withered)) | 5 (Herbicidal ratio of 90% or more (almost completely withered)) | 5 (Herbicidal ratio of 90% or more (almost completely withered)) | 4 (Herbicidal ratio of 70% or higher and lower than 90%) | 4 (Herbicidal ratio of 70% or higher and lower than 90%) | 4 (Herbicidal ratio of 70% or higher and lower than 90%) | 5 (Herbicidal ratio of 90% or more (almost completely withered)) |
| C=CCON=C(C)CC1CC(O)=C(c2c(C)cc(C)cc2C)C1=O (stereo not drawn) [1-018] | 5 (Herbicidal ratio of 90% or more (almost completely withered)) | 2 (Herbicidal ratio of 20% or higher and lower than 40%) | 5 (Herbicidal ratio of 90% or more (almost completely withered)) | 5 (Herbicidal ratio of 90% or more (almost completely withered)) | 5 (Herbicidal ratio of 90% or more (almost completely withered)) | 0 (Herbicidal ratio of 5% or lower (almost no effect)) | 5 (Herbicidal ratio of 90% or more (almost completely withered)) | 5 (Herbicidal ratio of 90% or more (almost completely withered)) | 5 (Herbicidal ratio of 90% or more (almost completely withered)) | 5 (Herbicidal ratio of 90% or more (almost completely withered)) | 5 (Herbicidal ratio of 90% or more (almost completely withered)) | 3 (Herbicidal ratio of 40% or higher and lower than 70%) | 0 (Herbicidal ratio of 5% or lower (almost no effect)) | 5 (Herbicidal ratio of 90% or more (almost completely withered)) | 5 (Herbicidal ratio of 90% or more (almost completely withered)) |
| C#CCON=C(C)CC1CC(O)=C(c2c(C)cc(C)cc2C)C1=O (stereo not drawn) [1-019] | 5 (Herbicidal ratio of 90% or more (almost completely withered)) | 2 (Herbicidal ratio of 20% or higher and lower than 40%) | 5 (Herbicidal ratio of 90% or more (almost completely withered)) | 5 (Herbicidal ratio of 90% or more (almost completely withered)) | 5 (Herbicidal ratio of 90% or more (almost completely withered)) | 3 (Herbicidal ratio of 40% or higher and lower than 70%) | 5 (Herbicidal ratio of 90% or more (almost completely withered)) | 5 (Herbicidal ratio of 90% or more (almost completely withered)) | 5 (Herbicidal ratio of 90% or more (almost completely withered)) | 5 (Herbicidal ratio of 90% or more (almost completely withered)) | 5 (Herbicidal ratio of 90% or more (almost completely withered)) | 4 (Herbicidal ratio of 70% or higher and lower than 90%) | 2 (Herbicidal ratio of 20% or higher and lower than 40%) | 5 (Herbicidal ratio of 90% or more (almost completely withered)) | 5 (Herbicidal ratio of 90% or more (almost completely withered)) |
